Assay results as given in publication PMC5064435, “Inhibition of endoplasmic reticulum glucosidases is required for in vitro and in vivo dengue antiviral activity by the iminosugar UV-4” (Antiviral Research, 2016).
Structures can show the parent of a compound that is named as a salt.

How the values were obtained:
Type in all cases: biochemical
Conditions in all cases: read-out: IC50 ^a / UV-4B
[1] = molecular target: T1, ceramide glucosyltransferase (HL60 glucosyltransferase) (Homo sapiens, UniProt Q16739); experiment: enzyme inhibition assay, enzyme isolated from HL60 cells
T1 construct: gene UGCG; native enzyme isolated from human promyelocytic HL60 cells
T1 sequence (Q16739 1-394): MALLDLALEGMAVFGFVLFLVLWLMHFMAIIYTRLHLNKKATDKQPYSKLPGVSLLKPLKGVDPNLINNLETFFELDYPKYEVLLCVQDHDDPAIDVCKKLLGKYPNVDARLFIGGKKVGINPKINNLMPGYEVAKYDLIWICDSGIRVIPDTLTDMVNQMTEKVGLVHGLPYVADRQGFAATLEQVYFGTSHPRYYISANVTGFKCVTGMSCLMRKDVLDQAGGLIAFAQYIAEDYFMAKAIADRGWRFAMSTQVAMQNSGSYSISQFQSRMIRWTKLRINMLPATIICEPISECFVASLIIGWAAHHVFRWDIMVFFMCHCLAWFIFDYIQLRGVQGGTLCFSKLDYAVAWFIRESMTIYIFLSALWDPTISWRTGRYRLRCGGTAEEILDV
Text: enzyme inhibition assay, enzyme isolated from HL60 cells on ceramide glucosyltransferase (HL60 glucosyltransferase)

[2] = molecular target: T2, Mouse ER α-glucosidase II (Mus musculus, UniProt Q8BHN3); experiment: enzyme inhibition assay, purified enzyme
T2 construct: gene Ganab; with Glucosidase 2 subunit beta
T2 sequence (Q8BHN3 33-944): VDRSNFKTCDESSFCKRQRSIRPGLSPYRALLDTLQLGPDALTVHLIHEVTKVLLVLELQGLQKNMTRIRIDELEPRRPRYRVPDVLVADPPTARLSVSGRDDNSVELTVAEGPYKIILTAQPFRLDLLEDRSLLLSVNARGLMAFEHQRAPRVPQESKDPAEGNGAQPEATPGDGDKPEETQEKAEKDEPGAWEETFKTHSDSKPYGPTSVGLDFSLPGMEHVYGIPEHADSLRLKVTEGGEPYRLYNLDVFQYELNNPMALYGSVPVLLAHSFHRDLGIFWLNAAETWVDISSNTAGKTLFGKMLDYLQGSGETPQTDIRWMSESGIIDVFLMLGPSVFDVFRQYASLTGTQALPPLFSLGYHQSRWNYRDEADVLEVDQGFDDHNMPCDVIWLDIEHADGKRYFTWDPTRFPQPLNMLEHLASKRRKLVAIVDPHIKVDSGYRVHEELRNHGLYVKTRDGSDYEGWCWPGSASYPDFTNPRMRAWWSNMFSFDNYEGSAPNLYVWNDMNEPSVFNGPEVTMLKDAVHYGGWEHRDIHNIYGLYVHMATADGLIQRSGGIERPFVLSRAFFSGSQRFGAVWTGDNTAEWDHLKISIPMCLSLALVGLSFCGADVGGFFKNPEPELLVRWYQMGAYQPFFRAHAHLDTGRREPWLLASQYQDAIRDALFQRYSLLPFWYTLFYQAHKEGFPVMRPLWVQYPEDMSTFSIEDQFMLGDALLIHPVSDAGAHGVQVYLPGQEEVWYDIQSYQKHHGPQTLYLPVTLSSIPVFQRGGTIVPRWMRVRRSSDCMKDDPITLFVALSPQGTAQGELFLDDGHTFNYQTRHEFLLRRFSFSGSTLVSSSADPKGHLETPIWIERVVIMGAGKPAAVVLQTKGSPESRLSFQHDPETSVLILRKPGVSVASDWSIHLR
T2 sequence (O08795 15-521 partner): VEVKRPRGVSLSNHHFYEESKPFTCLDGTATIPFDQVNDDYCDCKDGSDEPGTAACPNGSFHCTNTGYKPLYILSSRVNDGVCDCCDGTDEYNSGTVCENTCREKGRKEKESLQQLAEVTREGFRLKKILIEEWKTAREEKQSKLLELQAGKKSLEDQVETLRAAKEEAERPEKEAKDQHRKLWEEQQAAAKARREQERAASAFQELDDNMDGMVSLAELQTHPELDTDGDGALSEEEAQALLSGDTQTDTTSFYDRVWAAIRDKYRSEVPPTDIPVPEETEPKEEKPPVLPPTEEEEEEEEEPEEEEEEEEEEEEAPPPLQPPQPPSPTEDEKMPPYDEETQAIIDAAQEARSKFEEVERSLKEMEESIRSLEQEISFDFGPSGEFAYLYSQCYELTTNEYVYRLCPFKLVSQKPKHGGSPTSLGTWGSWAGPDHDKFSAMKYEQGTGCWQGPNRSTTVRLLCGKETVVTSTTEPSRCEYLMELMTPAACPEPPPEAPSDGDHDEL
Text: enzyme inhibition assay, purified enzyme on Mouse ER α-glucosidase II

Rat intestinal maltase = molecular target: T3, Rat intestinal maltase; experiment: enzyme inhibition assay
T3 construct: gene Mgam; native rat intestinal enzyme activity; maltase may be maltase-glucoamylase and/or sucrase-isomaltase
Text: enzyme inhibition assay on Rat intestinal maltase

COCCCCCCCCCN1C[C@H](O)[C@@H](O)[C@H](O)[C@H]1CO [UV-4B, N-(9′-methoxynonyl)-1-deoxynojirimycin hydrochloride]
IC50 [1]: 390 nM | IC50 [2]: 1800 nM | IC50 (Rat intestinal maltase): 280 nM
